This note sets out measurements from patent US20040023295A1, “Methods and systems for analyzing complex biological systems” (priority 2001, published 2004).

Assay [1] relates to Arabidopsis thaliana. In words: Phenotypic profiling of Arabidopsis sprayed with unknown and commercial herbicides (MOA1). Conditions: Ward's method. In kind it is in vivo.
For assay [2], the system named is Arabidopsis thaliana plants. Nature of the assay: Phenotypic analysis of herbicide-treated Arabidopsis plants (SOA1). Conditions: for characteristic symptoms (morphological phenotype): herbicide-treated Arabidopsis; for Dev. leafWidth: numeric values standardized to the average response for the mock treated tissues; for Dev. leafCurling / Dev. leafTwisting / Dev. matureLeafAnthocyanins / Dev. matureLeafChlorosis / Dev. matureLeafNecrosis / Dev. newLeafAnthocyanins / Dev. newLeafChlorosis / Dev. newLeafNecrosis / Dev. pointedLeaves: standardized to mock treated; for Symptom Class: three-week-old Arabidopsis sprayed with herbicide, phenotype classes of FIG. 12; for Dev. tMic: time for full range of symptoms at MIC, coded score. In kind it is in vivo.

For assay [3], the system named is Arabidopsis thaliana. Nature of the assay: Biochemical (metabolite) profiling by LC-MS and GC-MS of sprayed Arabidopsis (MOA1). Conditions: for stress related (commonly regulated) metabolites: within one hour after spraying.
In assay [4] the test system is Arabidopsis thaliana. In words: Gene expression profiling of sprayed Arabidopsis (MOA1). In kind it is in vivo.
For assay [5], the system named is Magnaporthe grisea. In kind it is cell-based.

Take `Nc1nc[nH]n1` [Amitrole]: the “phenotype / hierarchical clustering of the eleven phenotypic characteristics” value (shortened to “phenotype / hierarchical clustering”) in assay [1] is “exhibited chlorosis and not true bleaching”. Also, the “characteristic symptoms (morphological phenotype)” value in assay [2] was “leaf bleaching and leaf enlargement”.

Consider `CCSC(=O)N(CC(C)C)CC(C)C` [Butylate], for which the “phenotype / hierarchical clustering” value in assay [1] was “neither showed a strong herbicidal phenotype”. Further, the “stress related (commonly regulated) metabolites” value (shortened to “stress related”) in assay [3] is “neither butylate nor chlorpropham treatment resulted in many changes”.

As for `CC(C)OC(=O)Nc1cccc(Cl)c1` [Chloropropham], the “phenotype / hierarchical clustering” value in assay [1] was “neither showed a strong herbicidal phenotype”. In addition, the “stress related” value in assay [3] is recorded as “neither butylate nor chlorpropham treatment resulted in many changes”.

With `CP(=O)(O)CCC(N)C(=O)O` (centres unmarked) [Glufosinate], in assay [3], the “stress related” value is reported as “Only a few, if any”. Besides, the “Regulated Genes: Down” value in assay [4] (1 hr, p < 0.5, arrays containing 22,000 Arabidopsis genes) is reported as 54. For the same compound, in assay [4] (regulated genes identified as essential genes in internal database), the “No. of Lethal Genes Altered” value is 10. In assay [2], the “characteristic symptoms (morphological phenotype)” value was “Chlorosis and leaf curling”; the “Dev. leafWidth” value is recorded as −2; the “Dev. leafCurling” value was found to be 2; the “Dev. leafTwisting” value is reported as 1. Also, in assay [2], the “Dev. matureLeafAnthocyanins” value was 0, the “Dev. matureLeafChlorosis” value is listed as 3, the “Dev. matureLeafNecrosis” value was 0 and the “Dev. newLeafAnthocyanins” value was 0. In assay [2], the “Dev. newLeafChlorosis” value is recorded as 3, the “Dev. newLeafNecrosis” value is given as 0, the “Dev. pointedLeaves” value was 1 and the “Symptom Class” value was found to be 3. In addition, the “Dev. tMic” value in assay [2] was 1.

Consider `O=C(O)CNCP(=O)(O)O` [Glyphosate], for which the “tyrosine level relative to the control” value in assay [3] (early time points (20 min, 1 hour)) was “decreased relative to the control”. In assay [5] (250 μg/ml), the “growth of M. grisea with ammonium or glutamine as nitrogen source” value is “Little growth defect”; the “growth of M. grisea with nitrate or glutamate as nitrogen source” value is “inhibited growth”; the “growth of M. grisea with nitrite as the sole nitrogen source” value was “inhibited growth”; the “growth results for Tiers 3 and 4 as compared to Unknown 4” value was “nearly identical”. Also, the “growth inhibition of M. grisea and its remediation” value in assay [5] (1.0 mg/ml) is “remediated by inclusion of aromatic amino acids”. In addition, in assay [2], the “characteristic symptoms (morphological phenotype)” value is listed as “anthocyanin accumulation in the older leaves accompanied by chlorosis of the newly emerging leaves”, the “Dev. leafWidth” value worked out at 0, the “Dev. leafCurling” value turned out to be 0 and the “Dev. leafTwisting” value was determined as 0. Moreover, in assay [2], the “Dev. matureLeafAnthocyanins” value is recorded as 3, the “Dev. matureLeafChlorosis” value is 1, the “Dev. matureLeafNecrosis” value is recorded as 3 and the “Dev. newLeafAnthocyanins” value is listed as 1. Moreover, in assay [2], the “Dev. newLeafChlorosis” value came to 2, the “Dev. newLeafNecrosis” value is recorded as 0, the “Dev. pointedLeaves” value was 1 and the “Symptom Class” value is 4. Besides, the “Dev. tMic” value in assay [2] is 2.
